This is an account of results in PubChem BioAssay (NCI).

Values joined by “and” are separate entries in the source; they are usually repeats but may differ in a detail not shown here. Equal values may be shown once.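 Cultured in 96-well plates, cells were exposed to test compound for 48 hours across five concentrations. GI50: concentration for 50% inhibition of growth. TGI is the concentration that stops growth completely.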 *1 amine or outer side, *2 acyl side, *3 side chain or, on linkers, in order; H or OH if unused. Where a SMILES comes first, the peptide text is derived from it. Bridges are numbered along the chain shown (N, C = ends). Roman numbers before positions name the chains, in order. [ ]: non-standard residue; d: D form. Actinocin(9to1) = Cc1c2oc3c(C)ccc(C(=O)[*:1])c3nc-2c(C(=O)[*:2])c(N)c1=O; NMeH = CN[CH](Cc1c[nH]cn1)C(=O)O; Sar = CNCC(=O)O

Some test systems named below: LXFL 529 NSCLC; DMS 273 small cell lung; M19-MEL melanoma; SNB-78 CNS; MDA-N; XF 498 CNS; DMS 114 small cell lung; HOP-18 NSCLC; RXF-631 renal.
Assay in all cases: NCI tumour cell line growth inhibition, 48 h

Turning to `C=CCn1c(=S)sc2c(C(=O)OCC)c3c(C)cc(C)cn3c2c1=O`, the TGI with LXFL 529 NSCLC, in the experiment on DMS 273 small cell lung, in the experiment with M19-MEL melanoma and in the experiment on SNB-78 CNS was > 100 µM each time.

As to `N#C/C(=C/C=C/c1ccco1)C(N)=O`, the TGI in the experiment with MDA-N is > 10 µM.

As to `CCOC(=O)NC(=O)c1cn(CCN2CCN(C(=O)CNC(=O)CNC(=O)Cn3cc(C(=O)NC(=O)OCC)c(=O)[nH]c3=O)CC2)c(=O)[nH]c1=O`, the TGI in the experiment on LXFL 529 NSCLC, in the experiment with XF 498 CNS, in the experiment with DMS 273 small cell lung, in the experiment on M19-MEL melanoma, with SNB-78 CNS and with DMS 114 small cell lung was > 100 µM throughout. In addition, the TGI with HOP-18 NSCLC was > 100 µM.

Take `CC(C)C1CO[C@]2(C)CCC(=O)N12` (some centres undefined): the TGI in the experiment with LXFL 529 NSCLC, with XF 498 CNS, in the experiment with RXF-631 renal, in the experiment with M19-MEL melanoma, in the experiment on DMS 114 small cell lung and in the experiment on HOP-18 NSCLC was > 100 µM in each case.

`C[N+]1=c2c3cccc4cccc(c(=O)n2CC1)c43`: the TGI in the experiment with LXFL 529 NSCLC is 42.4 µM; in the experiment on DMS 273 small cell lung, 28.8 µM; in the experiment on RXF-631 renal, > 100 µM; with M19-MEL melanoma, 31.6 µM; with SNB-78 CNS, 54.7 µM; in the experiment with DMS 114 small cell lung, 29.2 µM. In the experiment with HOP-18 NSCLC, this compound showed a TGI of 54.1 µM.

Regarding `O=C(O)C(Cc1cnc[nH]1)N1C(=O)c2ccccc2C1=O` (centres undefined), the TGI in the experiment on MDA-N was > 100 µM.

Turning to `N#C/C(=C1\SCC(=O)N1c1ccccc1)c1nc2ccccc2[nH]1`, the TGI in the experiment with LXFL 529 NSCLC, with XF 498 CNS, in the experiment on DMS 273 small cell lung, in the experiment with M19-MEL melanoma, in the experiment on SNB-78 CNS and in the experiment on DMS 114 small cell lung was > 100 µM in each case.

Turning to `CSC(=S)Nc1cc(C)cc(C)n1`, the TGI in the experiment on MDA-N is > 31.6 µM.

Regarding `O=S(=O)(NC1CCCCC1)c1ccc2c(c1)OCCOCCOCCOCCO2`, the TGI in the experiment on MDA-N was > 100 µM.

In the case of `CCC1(O)CC(OC2CC(N(C)C)C(OC3CC(O)C(OC4OC(C)C(=O)C=C4N)C(C)O3)C(C)O2)c2c(cc3c(c2O)C(=O)c2c(O)cccc2C3=O)C1C(=O)OC` (centres undefined), the TGI in the experiment on MDA-N is 0.207 µM and 0.139 µM.

On to `Cc1ccc(S(=O)(=O)N/N=C(\c2nc3ccc(Cl)cc3[nH]c2=O)C(O)c2ccco2)cc1` (centres undefined), for which the TGI with LXFL 529 NSCLC, in the experiment with DMS 273 small cell lung, in the experiment on M19-MEL melanoma, in the experiment with DMS 114 small cell lung and in the experiment with HOP-18 NSCLC was > 100 µM in each case.

Regarding `C=CC(=O)N1C/C(=C\c2ccc(Cl)c(Cl)c2)C(=O)/C(=C/c2ccc(Cl)c(Cl)c2)C1`, the TGI with LXFL 529 NSCLC is 0.345 µM; with DMS 273 small cell lung it was 0.315 µM; in the experiment on RXF-631 renal, 1.89 µM; with M19-MEL melanoma, 0.4 µM; in the experiment on SNB-78 CNS, 0.838 µM; in the experiment with DMS 114 small cell lung, 0.309 µM. This compound also registered a TGI in the experiment with HOP-18 NSCLC of 1.38 µM.

In the case of `O=C1c2cc(Cc3ccccc3)c(=O)c(Cc3ccccc3)cc2C(=O)c2cc(Cc3ccccc3)c(=O)c(Cc3ccccc3)cc21`, the TGI with MDA-N was > 100 µM.

For the compound `COc1cc(CNc2nc3c(N)cc(C(F)(F)F)cc3nc2-c2ccccc2)cc(OC)c1OC`, the TGI in the experiment with LXFL 529 NSCLC is > 100 µM; in the experiment with XF 498 CNS, 86.2 µM; in the experiment on DMS 273 small cell lung, > 100 µM; in the experiment on RXF-631 renal, > 100 µM; in the experiment with M19-MEL melanoma, > 100 µM; with DMS 114 small cell lung, > 100 µM. For the same compound, the TGI in the experiment with HOP-18 NSCLC was > 100 µM. The GI50 in the experiment on HOP-18 NSCLC was > 100 µM.

As for `CCO/C=C1\N=C(c2ccc(Cl)c(Cl)c2)OC1=O`, the TGI in the experiment with LXFL 529 NSCLC, in the experiment with XF 498 CNS, with DMS 273 small cell lung, in the experiment with M19-MEL melanoma, in the experiment with SNB-78 CNS and in the experiment with DMS 114 small cell lung was > 100 µM in each case.

On to `C#CC1(O)CCC2C3CCc4cc(Oc5nc(F)nc(-c6c7ccccc7c7n6CCS7)n5)ccc4C3CC[C@@]21C` (some centres undefined), for which the TGI is 57.3 µM in the experiment with LXFL 529 NSCLC; > 100 µM in the experiment with XF 498 CNS; 87.8 µM in the experiment with DMS 273 small cell lung; > 100 µM in the experiment on M19-MEL melanoma; 44.7 µM in the experiment with DMS 114 small cell lung.

With `CC(C)/C=C1\CCC(CN2CCOCC2)C1=O` (centres undefined), the TGI is 8.24 µM in the experiment with LXFL 529 NSCLC; 33.4 µM in the experiment on XF 498 CNS; > 57.2 µM with M19-MEL melanoma; 37.4 µM in the experiment on SNB-78 CNS; 31.8 µM in the experiment with HOP-18 NSCLC.

As for `O=C1NC(N/N=C\C(O)C(O)C(O)C(O)CO)=N/C1=C/c1ccccc1` (centres undefined), in the experiment with MDA-N, the GI50 was 89 µM and 15.7 µM and > 100 µM; the TGI is > 100 µM and 31.6 µM.

For `Cc1cc(N(CCC#N)S(=O)(=O)c2ccccc2)ccc1/C=C1\N=C(c2ccc(Cl)cc2)OC1=O`, the TGI with LXFL 529 NSCLC, with XF 498 CNS, in the experiment with DMS 273 small cell lung, in the experiment on SNB-78 CNS and with DMS 114 small cell lung was > 100 µM in each case.

Consider `CC(C)N(C(=O)c1cccc(C(=O)N(C(C)C)C(C)C)c1)C(C)C`, for which the TGI in the experiment with LXFL 529 NSCLC, in the experiment on XF 498 CNS, with DMS 273 small cell lung, in the experiment with RXF-631 renal, in the experiment on M19-MEL melanoma and in the experiment with SNB-78 CNS was > 100 µM throughout. The TGI in the experiment with DMS 114 small cell lung and with HOP-18 NSCLC was > 100 µM throughout.

Regarding `Cc1c2oc3c(C)ccc(C(=O)NC4C(=O)NC(C(C)C)C(=O)N5CCCC5C(=O)N(C)CC(=O)N(C)C(Cc5cnc[nH]5)C(=O)OC4C)c3nc-2c(C(=O)NC2C(=O)NC(C(C)C)C(=O)N3CCCC3C(=O)N(C)CC(=O)N(C)C(Cc3cnc[nH]3)C(=O)OC2C)c(N)c1=O` (centres undefined) (I: TVP[Sar][NMeH] / II: TVP[Sar][NMeH]; ester I:1-I:C, II:1-II:C; linker I:N-II:N via Actinocin(9to1); configuration not given here), the TGI in the experiment on MDA-N came out at 81.4 µM.

For the compound `C=CO/N=[N+](\[O-])N(CC)CC`, the TGI in the experiment with MDA-N was > 100 µM.
